Measurements as given in patent US10092588B2, “Foamable compositions, breakable foams and their uses” (Foamix Pharmaceuticals Ltd., priority 2009, dated 2018).

Experiment: Solubility of mometasone furoate in foam composition, visual inspection
Assay type: physicochemical
Details: in the hydro-alcoholic foam formulation

C[C@@H]1C[C@H]2[C@@H]3CCC4=CC(=O)C=C[C@]4(C)[C@@]3(Cl)[C@@H](O)C[C@]2(C)[C@@]1(OC(=O)c1ccco1)C(=O)CCl [Mometasone furoate]
Solubility of Mometasone Furoate: soluble
